Patent US20040044060A1, “Fungicidal mixture” (priority 2001, published 2004)

Tested on: Plasmopara viticola
Assay: Protective activity against peronospora of vines caused by Plasmopara viticola (potted vines, spray treatment)
Format: in vivo
Conditions: individual active compound, vine leaves cv. Müller-Thurgau, untreated 75% infection
Description: The active compounds, separately or jointly, were formulated as a 10% emulsion in a mixture of 63% by weight of cyclohexanone and 27% by weight of emulsifier, and diluted with water to the desired concentration.
Evaluation was carried out by determining the infected leaf areas in percent. These percentages were converted into efficacies. The efficacy (W) was calculated as follows using Abbot's formula: […]
α corresponds to the fungal infection of the treated plants in % and β corresponds to the fungal infection of the untreated (control) plants in % An efficacy of 0 means that the infection level of the treated plants corresponds to that of the untreated control plants; an efficacy of 100 means that the treated plants were not infected.
The expected efficacies of the mixtures of the active compounds were determined using Colby's formula [R. S. Colby, Weeds 15, 20-22 (1967)] and compared with the observed efficacies.
E=x+y−x·y/100 Colby's formula: […]
E expected efficacy, expressed in % of the untreated control, when using the mixture of the active compounds A and B at the concentrations a and b x efficacy, expressed in % of the untreated control, when using active compound A at a concentration of a y efficacy, expressed in % of the untreated control, when using active compound B at a concentration of b.
Protective Activity Against peronospora vines Caused by Plasmopara viticola Leaves of potted vines of the cultivar “Müller-Thurgau” were sprayed to runoff point with an aqueous preparation of active compound which had been prepared from a stock solution comprising 10% of active compound, 85% of cyclohexanone and 5% of emulsifier. The next day, the undersides of the leaves were inoculated with an aqueous zoospore suspension of Plasmopara viticola. The vines were then initially placed in a water-vapor-saturated chamber at 24° C. for 48 hours and then in a greenhouse at 20-30° C. for 5 days. […] The extent to which the infection had developed on the undersides of the leaves was then determined visually.

Structure (SMILES): Cc1ccc(-c2c(Cl)nc(C#N)n2S(=O)(=O)N(C)C)cc1 [Ia, cyazofamid]
- Efficacy in % of the untreated control (0.05 ppm in the spray liquor): 47%
- Efficacy in % of the untreated control (0.1 ppm in the spray liquor): 73%
- Efficacy in % of the untreated control (0.2 ppm in the spray liquor): 87%
